Where a name gives a salt, the structure may show the parent alone.

For one assay, the system named is acetylcholine-induced abdominal constriction. As to the kind of experiment: animal or person. The class given is in vivo, mice. To be noted: Mus musculus, po, 100 mg./kg. oral; read-out: Ach percent inhibition.
Turning to `Cc1c(C(=O)c2ccc(-n3cccc3)cc2)c2ccccc2n1CCN1CCOCC1` [Example 14, 2-methyl-3-[4-(1H-pyrrol-1-yl)benzoyl]-1-[2-(4-morpholinyl)ethyl]-1H-indole], the inhibition in vivo at 100 mg/kg worked out at 40%.

In the case of `Cc1c(C(=O)c2ccccc2O)c2ccccc2n1CCN1CCOCC1` [Example 16A, 2-methyl-3-(2-hydroxybenzoyl)-1-[2-(4-morpholinyl)ethyl]-1H-indole], the inhibition in vivo at 100 mg/kg amounted to 10%.

For the compound `Cc1c(C(=O)c2ccc(O)cc2)c2cc(F)ccc2n1CCCN1CCOCC1` [Example 16B, 5-fluoro-2-methyl-3-(4-hydroxybenzoyl)-1-[3-(4-morpholinyl)propyl]-1H-indole hydrochloride], the inhibition in vivo at 100 mg/kg turned out to be 20%. The same measure, in the same setting: as for `COc1ccc(C(=O)c2c(C)n(CCN3CCOCC3)c3cc(O)ccc23)cc1` [Example 18, 6-hydroxy-2-methyl-3-(4-methoxybenzoyl)-1-[2-(4-morpholinyl)ethyl]-1H-indole hydrochloride hydrate (3:4)], the figure is 30%; as for `COc1ccc(C(=O)C=Cc2c(C)n(CCN3CCOCC3)c3ccccc23)cc1` [Example 19, 1-{2-methyl-1-[2-(4-morpholinyl)ethyl]-1H-indol-3-yl}-3-(4-methoxyphenyl)propen-3-one monohydrochloride], 40%; as for `Cc1c(C(=O)C=Cc2ccccc2F)c2ccccc2n1CCN1CCOCC1` [Example 20B, 3-(2-fluorocinnamoyl)-2-methyl-1-[2-(4-morpholinyl)ethyl]-1H-indole], 40%. Still for that read-out and setting: with `COCCNc1ccc(C(=O)c2c(C)n(CCN3CCOCC3)c3ccccc23)cc1` [Example 26A, 2-methyl-3-[4-(2-methoxyethylamino)benzoyl]-1-[2-(4-morpholinyl)ethyl]-1H-indole] the figure was 40%. On the same count and under the same terms, with `Cc1c(C(=O)c2ccc(N3CCCC(O)C3)cc2)c2ccccc2n1CCN1CCOCC1` (centres unmarked) [Example 26B] the figure was 40%; with `Cc1c(C(=O)c2ccc(N3CCNCC3)cc2)c2ccccc2n1CCN1CCOCC1` [Example 26C], 30%. Take `Cc1c(C(=O)c2ccc(N3CCC(O)CC3)cc2)c2ccccc2n1CCN1CCOCC1` [Example 26D]: the inhibition in vivo at 100 mg/kg was 30%.

Regarding `Cc1c(C(=O)c2ccc(N3CCOCC3)cc2)c2ccccc2n1CCN1CCOCC1` [Example 26G], the inhibition in vivo at 100 mg/kg was 20%. Still for that read-out and setting: as for `COc1ccc(C(=O)c2c(C)n(CCCNCCCCl)c3ccccc23)cc1` [Example 28, 1-[3-(3-chloropropylamino)propyl]-2-methyl-3-(4-methoxybenzoyl)-1H-indole hydrochloride], the figure is 90%; as for `COc1ccc(C(=O)c2c(C)n(CCCN3CC[S+]([O-])CC3)c3ccc(F)cc23)cc1` [Example 29A, 5fluoro-2-methyl-3-(4-methoxybenzoyl)-1-[3-(4-thiomorpholinyl)propyl]-1H-indole S-oxide maleate], 60%; as for `COc1ccc(C(=O)c2c(C)n(CCN3CC[S+]([O-])CC3)c3ccccc23)cc1` [Example 29B, 2-methyl-3-(4-methoxybenzoyl)-1-[2-(4-thiomorpholinyl)ethyl]-1H-indole S-oxide maleate], 60%.

As for `COc1ccc(C(=O)c2c(C)n(CC[N+]3([O-])CC[S+]([O-])CC3)c3ccccc23)cc1` (centres unmarked) [Example 29C, 2-methyl-3-(4-methoxybenzoyl)-1-[2-(4-thiomorpholinyl)ethyl]-1H-indole S,N-dioxide dihydrate], the inhibition in vivo at 100 mg/kg is 0%.

The assay is the same for the next values; noted with them: Mus musculus, po; read-out: Ach ED50.
A word on the ED50: it is the dose at which the effect has come halfway, by size or by number of responders. Regarding `COc1ccc(C(=O)c2c(C)n(CC[N+]3([O-])CCOCC3)c3ccccc23)cc1` [Example 15, 2-methyl-3-(4-methoxybenzoyl)-1-[2-(4-morpholinyl)ethyl]-1H-indole/N(MOR)-oxide], the 50% effective dose (ED50) stood at 155 mg/kg.

Consider `Cc1ccccc1C=CC(=O)c1c(C)n(CCN2CCOCC2)c2ccccc12` [Example 20A, 3-(2-methylcinnamoyl)-2-methyl-1-[2-(4-morpholinyl)ethyl]-1H-indole], for which the 50% effective dose (ED50) is 128 mg/kg. For the compound `COc1ccc(C(=O)c2c(C)n(CCN3CCCC(OC(C)=O)C3)c3ccccc23)cc1.O=C(O)/C=C\C(=O)O` (centres unmarked) [Example 21, 1-[2-(3-acetoxy-1-piperidinyl)ethyl]-2-methyl-3-(4-methoxybenzoyl)-1H-indole maleate (1:1)], the 50% effective dose (ED50) was determined as 31 mg/kg. Same read-out and setting: as for `CCOC(=O)N1CCN(CCn2c(C)c(C(=O)c3ccc(OC)cc3)c3ccccc32)CC1.O=C(O)/C=C\C(=O)O` [Example 22, 1-[2-(4-carbethoxy-1-piperazinyl)ethyl]-2-methyl-3-(4-methoxybenzoyl)-1H-indole maleate (1:1)], the figure is 66.8 mg/kg; as for `COc1ccc(C(=O)c2c(C)n(CCN3CCN(C(C)=O)CC3)c3ccccc23)cc1.O=C(O)/C=C\C(=O)O` [Example 23A, 1-[2-(4-acetyl-1-piperazinyl)ethyl]-2-methyl-3-(4-methoxybenzoyl)-1H-indole maleate (1:1)], 85 mg/kg; as for `COc1ccc(C(=O)c2c(C)n(CCCN3CCN(C(C)=O)CC3)c3ccc(F)cc23)cc1.CS(=O)(=O)O` [Example 23B, 5-fluoro-2-methyl-3-(4-methoxybenzoyl)-1-[3-(4-acetyl-1-piperazinyl)propyl]-1H-indole methanesulfonate], 39 mg/kg.

With `COc1ccc(C(=O)c2c(C)n(CCCN)c3ccc(F)cc23)cc1.O=C(O)/C=C\C(=O)O` [Example 25A, 1-(3-aminopropyl)-5-fluoro-2-methyl-3-(4-methoxybenzoyl)-1H-indole maleate (1:1)], the 50% effective dose (ED50) stood at 82.5 mg/kg. Same read-out and setting: as for `COc1ccc(C(=O)c2c(C)n(CCN)c3ccccc23)cc1.O=C(O)/C=C\C(=O)O` [Example 25B, 1-(2-aminoethyl)-2-methyl-3-(4-methoxybenzoyl)-1H-indole maleate], the figure is 42 mg/kg. On the same count and under the same terms, as for `Cc1c(C(=O)c2ccc(-n3ccnc3)cc2)c2ccccc2n1CCN1CCOCC1` [Example 26E], the figure is 73.1 mg/kg. On the same count and under the same terms, with `Cc1c(C(=O)c2ccc(-n3ccnc3)cc2)c2cc(F)ccc2n1CCCN1CCOCC1` [Example 26F] the figure was 61 mg/kg; with `COc1ccc(C(=O)c2c(C)n(CCN3CCNCC3)c3ccccc23)cc1.CS(=O)(=O)O.CS(=O)(=O)O` [Example 27A, 2-methyl-3-(4-methoxybenzoyl)-1-[2-(1-piperazinyl)ethyl]-1H-indole dimethanesulfonate], 20.7 mg/kg.

For `COc1ccc(C(=O)c2c(C)n(CCNCCO)c3ccccc23)cc1` [Example 27B, 1-[2-(2-hydroxyethylamino)ethyl]-2-methyl-3-(4-methoxybenzoyl)-1H-indole], the ED50 turned out to be 59.8 mg/kg.

As to `COc1ccc(C(=O)c2c(C)n(CCN3CCCC(N)C3)c3ccccc23)cc1.O=C(O)/C=C\C(=O)O.O=C(O)/C=C\C(=O)O` (centres unmarked) [Example 27C, 1-[2-(3-amino-1-piperidinyl)ethyl]-2-methyl-3-(4-methoxybenzoyl)-1H-indole maleate (1:2)], the ED50 was found to be 29.4 mg/kg.

Take `COc1ccc(C(=O)c2c(C)n(CCCN3CCNCC3)c3ccc(F)cc23)cc1.CS(=O)(=O)O.CS(=O)(=O)O` [Example 27D, 5-fluoro-2-methyl-3-(4-methoxybenzoyl)-1-[3-(1-piperazinyl)propyl]-1H-indole dimethanesulfonate]: the ED50 was determined as 30 mg/kg.

For the origin of these results see patent US4581354A, “3-arylcarbonyl- and 3-cycloalkylcarbonyl-1-aminoalkyl-1H-indoles, compositions and use” (Sterling Drug Inc., priority 1985, dated 1986).
